Results: patent US20090239846A1, “Novel Compounds” (Glaxo Group Limited, priority 2005, published 2009)
Structures can show the parent of a compound that is named as a salt.

biological target: T1, Recombinant human p38α (Homo sapiens, UniProt Q16539); test: Fluorescence anisotropy kinase binding assay (standard or low volume); details: 12 nM p38α, 5 nM fluorescent ligand
T1 construct: GST; made in house
From the text: (§1) The concentration of kinase enzyme should preferably be >2×Kf. The concentration of fluorescent ligand required will depend on the instrumentation used, and the fluorescent and physicochemical properties. The concentration used must be lower than the concentration of kinase enzyme, and preferably less than half the kinase enzyme concentration.
The fluorescent ligand is the following compound:
[drawing 329] • which is derived from 5-[2-(4-aminomethylphenyl)-5-pyridin-4-yl-1H-imidazol-4-yl]-2-chlorophenol and rhodamine green. Recombinant human p38α was expressed as a GST-tagged protein. To activate this protein, 3.5 μM unactivated p38α was incubated in 50 mM Tris-HCl pH 7.5, 0.1 mM EGTA, 0.1% 2-mercaptoethanol, 0.1 mM sodium vanadate, 10 mM MgAc, 0.1 mM ATP with 200 nM MBP-MKK6 DD at 30 degrees for 30 mins. Following activation p38α was re-purified and the activity assessed using a standard filter-binding assay. Protocol: All components are dissolved in buffer of composition 62.5 mM HEPES, pH 7.5, 1.25 mM CHAPS, 1 mM DTT, 12.5 mM MgCl2 with final concentrations of 12 nM p38α and 5 nM fluorescent ligand. 30 μl of this reaction mixture is added to wells containing 1 μl of various concentrations of test compound (0.28 nM-16.6 μM final) or DMSO vehicle (3% final) in NUNC 384 well black microtitre plate and equilibrated for 30-60 mins at room temperature. Fluorescence anisotropy is read in Molecular Devices Acquest (excitation 485 nm/emission 535 nm). Definitions: Ki=dissociation constant for inhibitor binding • Kf=dissociation constant for fluorescent ligand binding
as §1, with “2×Kf.” for “>2×Kf.”, “concentration. The fluorescent ligand is the following compound:” for “concentration.”
which is derived from 5-[2-(4-aminomethylphenyl)-5-pyridin-4-yl-1H-imidazol-4-yl]-2-chlorophenol and rhodamine green. Recombinant human p38α was expressed as a GST-tagged protein. To activate this protein, 3.5 μM unactivated p38α was incubated in 50 mM Tris-HCl pH 7.5, 0.1 mM EGTA, 0.1% 2-mercaptoethanol, 0.1 mM sodium vanadate, 10 mM MgAc, 0.1 mM ATP with 200 nM MBP-MKK6 DD at 30 degrees for 30 mins. Following activation p38α was re-purified and the activity assessed using a standard filter-binding assay. Protocol: All components are dissolved in buffer of composition 62.5 mM HEPES, pH 7.5, 1.25 mM CHAPS, 1 mM DTT, 12.5 mM MgCl2 with final concentrations of 12 nM p38α and 5 nM fluorescent ligand. […] of this reaction mixture is added to wells containing 0.1 μl of various concentrations of test compound (0.02 nM-25 μM final) or DMSO vehicle (1.7% final) in Greiner low volume 384 well black microtitre plate and equilibrated for 30-60 mins at room temperature. Fluorescence anisotropy is read in Molecular Devices Acquest (excitation 485 nm/emission 535 nm). Definitions: Ki dissociation constant for inhibitor binding • Kf=dissociation constant for fluorescent ligand binding It is noted that there are two assay formats shown above for the Fluorescence anisotropy kinase binding assay. The only difference between these two assays is the volume used and the plate type. […] The results described herein may have been performed in either assay format and are not differentiated as to which.

T1 sequence (Q16539 whole entry): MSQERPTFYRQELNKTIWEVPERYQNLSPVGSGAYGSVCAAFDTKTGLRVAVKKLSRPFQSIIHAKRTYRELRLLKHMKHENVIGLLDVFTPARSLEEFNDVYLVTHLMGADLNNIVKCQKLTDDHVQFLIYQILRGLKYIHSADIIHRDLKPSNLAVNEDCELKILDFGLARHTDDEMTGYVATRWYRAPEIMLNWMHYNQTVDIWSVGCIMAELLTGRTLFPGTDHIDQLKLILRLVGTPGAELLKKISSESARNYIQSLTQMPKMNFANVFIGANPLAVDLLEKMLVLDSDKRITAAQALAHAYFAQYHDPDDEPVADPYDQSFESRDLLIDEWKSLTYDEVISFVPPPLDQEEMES

| active in the assay (pIC50, p38α binding) | Compound |
| --- | --- |
| active | CNC1CCN(c2nc(-c3cc(C(=O)Nc4ccc(F)cc4)ccc3C)c3c(n2)N(c2c(F)cccc2F)C(=O)NC3)CC1 [33(b), 3-{8-(2,6-difluorophenyl)-2-[4-(methylamino)-1-piperidinyl]-7-oxo-5,6,7,8-tetrahydropyrimido[4,5-d]pyrimidin-4-yl}-N-(4-fluorophenyl)-4-methylbenzamide] |
| active | Cc1ccc(C(=O)NCC2CC2)cc1-c1nc(N2CCC(N)CC2)nc2c1CNC(=O)N2c1c(F)cccc1F [2(b), 3-[2-(4-Amino-1-piperidinyl)-8-(2,6-difluorophenyl)-7-oxo-5,6,7,8-tetrahydropyrimido[4,5-d]pyrimidin-4-yl]-N-(cyclopropylmethyl)-4-methylbenzamide] |
| active | Cc1ccc(C(=O)NCCc2ccc(F)cc2)cc1-c1nc(N2CCC(N)CC2)nc2c1CNC(=O)N2c1c(F)cccc1F [3(b), 3-[2-(4-Amino-1-piperidinyl)-8-(2,6-difluorophenyl)-7-oxo-5,6,7,8-tetrahydropyrimido[4,5-d]pyrimidin-4-yl]-N-[2-(4-fluorophenyl)ethyl]-4-methylbenzamide] |
| active | CSc1nc(-c2cc(C(=O)O)ccc2C)c2c(n1)N(c1c(F)cccc1F)C(=O)NC2 [1(d), 3-[8-(2,6-Difluorophenyl)-2-(methylthio)-7-oxo-5,6,7,8-tetrahydropyrimido[4,5-d]pyrimidin-4-yl]-4-methylbenzoic acid] |
| active | CSc1nc(-c2cc(C(=O)N(C)C)ccc2C)c2c(n1)N(c1c(F)cccc1F)C(=O)NC2 [149(a), 3-[8-(2,6-difluorophenyl)-2-(methylthio)-7-oxo-5,6,7,8-tetrahydropyrimido[4,5-d]pyrimidin-4-yl]-N,N,4-trimethylbenzamide] |
| active | CNC(=O)c1ccc(C)c(-c2nc(SC)nc3c2CNC(=O)N3c2c(F)cccc2F)c1 [163(a), 3-[8-(2,6-difluorophenyl)-2-(methylthio)-7-oxo-5,6,7,8-tetrahydropyrimido[4,5-d]pyrimidin-4-yl]-N,4-dimethylbenzamide] |

More lines, now with the values behind:

| Compound | active in the assay (pIC50, p38α binding) |
| --- | --- |
| Cc1ccc(NC(=O)c2ccsc2)cc1-c1nc(NC2CC(C)(C)NC(C)(C)C2)nc2c1CNC(=O)N2c1c(F)cccc1F [7(d), N-(3-{8-(2,6-Difluorophenyl)-7-oxo-2-[(2,2,6,6-tetramethyl-4-piperidinyl)amino]-5,6,7,8-tetrahydropyrimido[4,5-d]pyrimidin-4-yl}-4-methylphenyl)-3-thiophenecarboxamide] | active |
| CSc1nc(-c2cc(NC(=O)c3ccsc3)ccc2C)c2c(n1)N(c1c(F)cccc1F)C(=O)NC2 [Example 10(c), N-{3-[8-(2,6-difluorophenyl)-2-(methylthio)-7-oxo-5,6,7,8-tetrahydropyrimido[4,5-d]pyrimidin-4-yl]-4-methylphenyl}-3-thiophenecarboxamide] | active |
| CC(C)NC(=O)c1cccc(-c2nc(NCCN(C)C)nc3c2CNC(=O)N3c2c(F)cccc2F)c1 [88(c), 3-(8-(2,6-difluorophenyl)-2-{[2-(dimethylamino)ethyl]amino}-7-oxo-5,6,7,8-tetrahydropyrimido[4,5-d]pyrimidin-4-yl)-N-(1-methylethyl)benzamide] | active |
| CNCCNc1nc(-c2cc(C(=O)Nc3ccc(F)cc3)ccc2C)c2c(n1)N(c1c(F)cccc1F)C(=O)NC2 [31(b), 3-(8-(2,6-difluorophenyl)-2-{[2-(methylamino)ethyl]amino}-7-oxo-5,6,7,8-tetrahydropyrimido[4,5-d]pyrimidin-4-yl)-N-(4-fluorophenyl)-4-methylbenzamide] | active |
| Cc1ccc(C(=O)Nc2ccc(F)cc2)cc1-c1nc(NCCNC(C)C)nc2c1CNC(=O)N2c1c(F)cccc1F [30(c), 3-[8-(2,6-difluorophenyl)-2-({2-[(1-methylethyl)amino]ethyl}amino)-7-oxo-5,6,7,8-tetrahydropyrimido[4,5-d]pyrimidin-4-yl]-N-(4-fluorophenyl)-4-methylbenzamide] | active |
| CCN(CC)CCCC(C)Nc1nc(-c2cc(C(=O)NC(C)C)ccc2C)c2c(n1)N(c1c(F)cccc1F)C(=O)NC2 (centres unmarked) [Example 85, 3-[2-{[4-(diethylamino)-1-methylbutyl]amino}-8-(2,6-difluorophenyl)-7-oxo-5,6,7,8-tetrahydropyrimido[4,5-d]pyrimidin-4-yl]-4-methyl-N-(1-methylethyl)benzamide trifluoroacetate] | active |
| CNCCNc1nc(-c2cc(C(=O)NC(C)C)ccc2C)c2c(n1)N(c1c(F)cccc1F)C(=O)NC2 [38(b), 3-(8-(2,6-difluorophenyl)-2-{[2-(methylamino)ethyl]amino}-7-oxo-5,6,7,8-tetrahydropyrimido[4,5-d]pyrimidin-4-yl)-4-methyl-N-(1-methylethyl)benzamide] | active |
| Cc1ccc(C(=O)NCc2ccccc2)cc1-c1nc(NC2CCN(C(=O)OC(C)(C)C)CC2)nc2c1CNC(=O)N2c1c(F)cccc1F [21(a), 1,1-Dimethylethyl 4-{[8-(2,6-difluorophenyl)-4-(2-methyl-5-{[(phenylmethyl)amino]carbonyl}phenyl)-7-oxo-5,6,7,8-tetrahydropyrimido[4,5-d]pyrimidin-2-yl]amino}-1-piperidinecarboxylate] | active |
| CSc1nc(-c2cc(N)ccc2C)c2c(n1)N(c1c(F)cccc1F)C(=O)NC2 [10(b), 5-(5-Amino-2-methylphenyl)-1-(2,6-difluorophenyl)-7-(methylthio)-3,4-dihydropyrimido[4,5-d]pyrimidin-2(1H)-one] | active |

tested on: influx of neutrophils to the lung in LPS-challenged rats; test: Rat LPS neutrophilia model; format: in vivo; details: LPS aerosol, lavage 4 hours later, in at least one of the range of conditions tested, significance p<0.05; call rule not given here
Procedure: The effect of compounds on the influx of neutrophils to the lung in LPS-challenged rats is evaluated as follows. The test compound is suspended in one of the following solutions: 0.5% tween 80/PBS, 0.5% tween 80/saline, 10% EtOH/saline (with pH adjusted to 2.0, or 8.0 with HCl, or unadjusted), Saline (pH 2.0, 6.5 or 8.0, 0.5% Tragacanth, 1% DMSO/20% Encapsin/Saline, or acidified 5% Tragacanth. The suspension process may be aided by the use of a glass homogenizer. For intratracheal administration, the animals are anesthetized with inhaled isoflurane and placed in a supine position, the trachea is intubated with a steel gavage needle (1.5 inch, 22 gauge, small ball) or a Penn-Century Microsprayer Aerosolizer (model IA-LB) and 200 ul of dosing solution is delivered. The animals are visually monitored during the recovery process, which typically occurs within two minutes.
Rats treated with compound or vehicle (15 min-24 hours pretreatment) are exposed to an LPS aerosol (100 ug/ml) for 15 min. Four hours later the rats are euthanized with pentobarbital (100 mg/kg, i.p.) and the airways are lavaged with 5 washes of 5 ml of phosphate buffered saline. The harvested cells are stained (Diffquick) and counted to determine total and differential cell data. In a typical study, macrophages represent 40-70% of the total cells, and polymorphonuclear cells 30-60% of the total cells. Inhibition of neutrophil levels relative to no compound controls is calculated based on the differential counts.
The assay has varying conditions, such as concentration, pretreat time, form of the compound (crystalline, amorphous, salts, micronised), and a wet or dry application of the compound.
The data is obtained as % inhibition using a particular concentration and pretreat time.

| Compound | inhibition of neutrophilia |
| --- | --- |
| CN(C)CCNc1nc(-c2cccc(C(=O)Nc3ccccc3)c2)c2c(n1)N(c1c(F)cccc1F)C(=O)NC2 [Example 91] | statistically significant inhibition of neutrophilia |
| Cc1ccc(C(=O)NC(C)C)cc1-c1nc(N(C)CCN(C)C)nc2c1CNC(=O)N2c1c(F)cccc1F [Example 36, 3-{8-(2,6-difluorophenyl)-2-[[2-(dimethylamino)ethyl](methyl)amino]-7-oxo-5,6,7,8-tetrahydropyrimido[4,5-d]pyrimidin-4-yl}-4-methyl-N-(1-methylethyl)benzamide] | statistically significant inhibition of neutrophilia |
